Source: ChEMBL document CHEMBL1201862, “PubChem BioAssay data set” (2004)
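Five compound concentrations were applied to cells in 96-well plates for 48 hours; endpoints were derived by simple linear interpolation of the resulting dose-response curve. GI50 is the concentration that inhibits growth by half.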 Calls of active or inactive are those of the source. Rule as the data show it: active = GI50 up to about 1.1 µM and inactive = higher.

Experiments:
Assay in all cases: inhibition of tumour cell growth, NCI panel, 48 h
[1] = tested on: U-251
[2] = tested on: MCF7
[3] = tested on: OVCAR-5
[4] = tested on: SR
[5] = tested on: HOP-92
[6] = tested on: NCI-H460
[7] = tested on: SW-620
[8] = tested on: NCI-H226
[9] = tested on: HCC 2998
[10] = tested on: RPMI-8226
[11] = tested on: MDA-MB-231
[12] = tested on: NCI-H522
[13] = tested on: RXF 393
[14] = tested on: SNB-19
[15] = tested on: CAKI-1
[16] = tested on: Malme-3M
[17] = tested on: SF-539
[18] = tested on: T47D
[19] = tested on: MDA-MB-435
[20] = tested on: HL-60

Measured: GI50

CC12CCC(C(Nc3ccccn3)C1=O)C2(C)C (stereo not given)
inactive: [1] > 100 µM | [2] > 100 µM | [3] > 100 µM | [4] > 100 µM | [5] > 100 µM | [6] > 100 µM | [7] > 100 µM | [8] > 100 µM | [9] 29.9 µM | [10] > 100 µM | [11] > 100 µM | [12] > 100 µM | [13] > 100 µM | [14] > 100 µM | [15] > 100 µM | [16] > 100 µM | [17] > 100 µM | [18] > 100 µM | [19] > 100 µM | [20] > 100 µM

CC(=O)Oc1c(C)c2c(c3ncccc13)OC(C)C2 (stereo not given)
inactive: [1] 15.5 µM | [2] 13.3 µM | [3] 17.2 µM | [4] 3.63 µM | [5] 14.7 µM | [6] 10.8 µM | [7] 14.2 µM | [8] 16.4 µM | [9] 12.8 µM | [10] 16.7 µM | [11] 11.5 µM | [12] 4.29 µM | [13] 14.8 µM | [14] 34 µM | [15] 14.6 µM | [16] 16.3 µM | [17] 15 µM | [18] 9.14 µM | [19] 6.14 µM | [20] 7.4 µM

COc1ccc(-c2cc(-c3ccc(C)cc3)n(C3OC(COC(C)=O)C(OC(C)=O)C(OC(C)=O)C3OC(C)=O)c(=S)c2C#N)cc1 (stereo not given)
inactive: [1] 50.1 µM | [2] > 100 µM | [3] > 100 µM | [4] > 100 µM | [5] > 100 µM | [6] > 100 µM | [7] > 100 µM | [8] > 100 µM | [9] > 100 µM | [10] > 100 µM | [11] > 100 µM | [12] > 100 µM | [13] 79.4 µM | [14] 90.6 µM | [15] > 100 µM | [16] > 100 µM | [17] 57.5 µM | [18] > 100 µM | [19] > 100 µM | [20] 49.3 µM

CCOC(=O)c1c(-c2ccccc2)[nH]c2ccc(Cl)cc2c1=O
inactive: [1] 41.6 µM | [2] 31.8 µM | [3] > 100 µM | [4] 33.3 µM | [5] 22 µM | [6] 30.3 µM | [7] > 100 µM | [8] 68.9 µM | [9] 37.9 µM | [10] 36.9 µM | [11] 31.3 µM | [12] 28 µM | [13] 35 µM | [14] > 100 µM | [15] 37.9 µM | [16] 61.8 µM | [17] 29.9 µM | [18] 23.7 µM | [19] 34.8 µM | [20] 28.2 µM
